Assay [1] addresses KDM4C. Kind of assay: In vitro TR-FRET demethylase assay / KDM4C inhibition. The assay is classed as biochemical. The note with it: nonbinding control peptide; assay not described.
For assay [2], the system named is KDM4C. Kind of assay: HDX-MS of KDM4C ± peptide. The assay is classed as binding.
Assay [3] deals with KDM4C. The note with it: cited from earlier work; for inhibition constants: TR-FRET demethylase assay; for apparent increase in activity of second generation peptides over initial leads: vs initial peptide leads.
Assay [4] relates to KDM4C. As to conditions: cell-based assay; cited from earlier work.

“Also recorded” adds a separate entry of the source. Bridges are numbered along the chain shown (N, C = ends).

These results are taken from paper PMC4255673 (Analytical Chemistry, 2014).

As to “H-ACKWMDDGYCGGG-NH2 (disulfide 2-10 (inferred)) [Peptide 4]”, the “KDM4C inhibition (control peptide)” value on KDM4C [1] is listed as “noninhibitory”.

As for “H-ACYTRNMNQC-NH2 (also: sidechain bridge or staple (positions not given here)) [Peptide 2]”, the “isotopic distribution / EX1 kinetics in site D (331–344)” value in the assay with KDM4C [2] (KDM4C 331–344, HDX time course, bimodal fit with HX-Express, peptide 160 μM) is listed as “confirmed the occurrence of EX1 kinetics”. In addition, the “HDX of helix 359–370” value in the assay on KDM4C [2] (KDM4C 359–370, Figure S1 / data not shown) was “the perturbation in HDX along site 359–370 was only significant after 10 min; also recorded: Helix 359–370 shows reduced HDX (significant only after 10 min; see Figure S1, Supporting Information) but no EX1 exchange kinetics”. Besides, at KDM4C [3], the inhibition constants result was “in the high μM range” and the “apparent increase in activity of second generation peptides over initial leads” value was 10 fold. Moreover, the “inhibitory activity in cells” value with KDM4C [4] is given as “none of the peptides showed any inhibitory activity”.

On to “H-CKWMADGYC-NH2 (disulfide 1-9 (inferred)) [Peptide 3]”, for which, on KDM4C [3], the inhibition constants result is given as “in the high μM range” and the “apparent increase in activity of second generation peptides over initial leads” value is 10 fold. Further, in the assay on KDM4C [4], the “inhibitory activity in cells” value is “none of the peptides showed any inhibitory activity”.
